# In US7592336B2, “Hepatitis C virus inhibitors” (Bristol-Myers Squibb Company, priority 2005, dated 2009):
# Experiments:
# [1] = test system: HCV replicon (Renilla luciferase) in HUH-7 cells; assay: HCV replicon luciferase reporter assay; type: cell-based, HCV strain 1b; conditions: Huh-7, 96 h, 4 days
# Description: As a secondary assay, EC50 determinations from the replicon FRET assay were confirmed in a replicon luciferase reporter assay. Utilization of a replicon luciferase reporter assay was first described by Krieger et al (Krieger N, Lohmann V, and Bartenschlager R, J. Virol. 75(10):4614-4624 (2001)). The replicon construct described for our FRET assay was modified by inserting cDNA encoding a humanized form of the Renilla luciferase gene and a linker sequence fused directly to the 3′-end of the luciferase gene. This insert was introduced into the replicon construct using an Asc1 restriction site located in core, directly upstream of the neomycin marker gene. The adaptive mutation at position 1179 (serine to isoleucine) was also introduced (Blight K J, Kolykhalov, A A, Rice, C M, Science 290(5498):1972-1974). A stable cell line constitutively expressing this HCV replicon construct was generated as described above. The luciferase reporter assay was set up as described for the HCV replicon FRET assay with the following modifications. Following 4 days in a 37° C./5% CO2 incubator, cells were analyzed for Renilla Luciferase activity using the Promega Dual-Glo Luciferase Assay System. […] Plates were read on a Packard TopCount NXT using a luminescence program.
# The percentage inhibition was calculated using the formula below: […]
# The values were graphed and analyzed using XLfit to obtain the EC50 value.
# [2] = target: T1, porcine pancreatic elastase (PPE) (Sus scrofa, UniProt P00772); assay: Specificity assay, porcine pancreatic elastase; type: biochemical; conditions: 2 h enzyme-inhibitor pre-incubation; read-out: PPE activity in the specificity assays (IC50)
# T1 construct: purchased Sigma
# Experimental: (§1) The specificities of compounds of the present disclosure were determined against a variety of serine proteases: human neutrophil elastase (HNE), porcine pancreatic elastase (PPE) and human pancreatic chymotrypsin and one cysteine protease: human liver cathepsin B. In all cases a 96-well plate format protocol using calorimetric p-nitroaniline (pNA) substrate specific for each enzyme was used as described previously (PCT Patent Application No. WO 00/09543) with some modifications to the serine protease assays. All enzymes were purchased from Sigma while the substrates were from Bachem.
# (§2) Each assay included a 2 h enzyme-inhibitor pre-incubation at room temperature followed by addition of substrate and hydrolysis to 30% conversion as measured on a Spectramax Pro microplate reader. Compound concentrations varied from 100 to 0.4 μM depending on their potency. […]
# (§3) The percentage of inhibition was calculated using the formula: [1−((UVinh−UVblank)/(UVctl−UVblank))]×100 […]
# human liver cathepsin B = target: T2, human liver cathepsin B (Homo sapiens, UniProt P07858); assay: Specificity assay, cathepsin B; type: biochemical; conditions: 2 h enzyme-inhibitor pre-incubation; read-out: Cathepsin B activity in the specificity assays (IC50)
# T2 construct: purchased Sigma; host or cells: human liver
# Experimental: as §1, §2, §3
# T1 sequence (P00772 27-266): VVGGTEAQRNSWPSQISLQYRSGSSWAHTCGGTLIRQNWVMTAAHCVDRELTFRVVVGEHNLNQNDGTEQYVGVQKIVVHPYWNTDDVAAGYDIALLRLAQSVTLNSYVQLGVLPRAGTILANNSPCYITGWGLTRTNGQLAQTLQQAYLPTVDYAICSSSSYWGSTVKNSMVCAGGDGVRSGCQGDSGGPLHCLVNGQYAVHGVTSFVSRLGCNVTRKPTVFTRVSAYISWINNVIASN
structure (smiles),measurement,setting,value
C=C[C@@H]1C[C@]1(NC(=O)[C@@H]1C[C@@](O)(c2ccc(-c3ccccc3)cc2)CN1C(=O)[C@@H](NC(=O)OC(C)(C)C)C(C)(C)C)C(=O)NS(=O)(=O)C1CC1 [Compound 3],EC50,[1],14 nM
same,IC50,[2],> 100000 nM
same,IC50,human liver cathepsin B,2000 nM
